Data: patent US20070049564A1 (Wyeth, priority 2005, published 2007)
Read-outs that look alike come from different tables or passages of the source.

Tests used:
E. coli GC 2231 = experiment: MIC, broth microdilution; conditions: Escherichia coli
S. pneumoniae* GC 4465 = experiment: MIC, broth microdilution; conditions: Streptococcus pneumoniae
E. faecalis GC 2242 = experiment: MIC, broth microdilution; conditions: Enterococcus faecalis
Procedure: (§1) Antimicrobial susceptibility testing. The in vitro activities of the antibiotics are determined by the broth microdilution method as recommended by the National Committee for Clinical Laboratory Standards (NCCLS) (1). Mueller-Hinton II broth (MHBII)(BBL Cockeysville, Md.) is the medium employed in the testing procedures. Microtiter plates containing serial dilutions of each antimicrobial agent are inoculated with each organism to yield the appropriate density (10^5 CFU/ml) in a 100 μl final volume. The plates are incubated for 18-22 hours at 35° C. in ambient air.
Representative compounds were first incubated in mouse serum for an hour prior to the in vitro testing against a panel of selected gram-positive and gram-negative bacteria strains. All compounds were also pre-incubated in water for an hour prior to testing as control. Representative compounds of Formula I were incubated in human serum prior to MIC determination.

S. aureus GC 6467 = experiment: MIC, broth microdilution; conditions: Staphylococcus aureus
E. coli GC 2272 = experiment: MIC, broth microdilution; conditions: Escherichia coli
S. aureus GC 2216 = experiment: MIC, broth microdilution; conditions: Staphylococcus aureus
Procedure: Antimicrobial susceptibility testing. The in vitro activities of the antibiotics are determined by the broth microdilution method as recommended by the National Committee for Clinical Laboratory Standards (NCCLS) (1). Mueller-Hinton II broth (MHBII)(BBL Cockeysville, Md.) is the medium employed in the testing procedures. Microtiter plates containing serial dilutions of each antimicrobial agent are inoculated with each organism to yield the appropriate density (10^5 CFU/ml) in a 100 μl final volume. The plates are incubated for 18-22 hours at 35° C. in ambient air. […] Standard Pharmacological Test Procedures
Presented in Tables I-XIII are representative compounds of Formula I which were evaluated against a panel of 40 selected gram-positive and gram-negative bacteria strains by pre-incubation in water, mouse serum or human serum. Representative compounds were first incubated in mouse serum for an hour prior to the in vitro testing against a panel of selected gram-positive and gram-negative bacteria strains. All compounds were also pre-incubated in water for an hour prior to testing as control. Representative compounds of Formula I were incubated in human serum prior to MIC determination.

E. coli GC 4560 = experiment: MIC, broth microdilution; conditions: Escherichia coli
E. coli GC 2232 = experiment: MIC, broth microdilution; conditions: Escherichia coli
S. epidermidis GC 4935 = experiment: MIC, broth microdilution; conditions: Staphylococcus epidermidis
E. coli GC 2234 = experiment: MIC, broth microdilution; conditions: Escherichia coli
S. pneumoniae+ GC 4465 = experiment: MIC, broth microdilution; conditions: Streptococcus pneumoniae
Procedure: as §1
(§2) Representative compounds were first incubated in mouse serum for an hour prior to the in vitro testing against a panel of selected gram-positive and gram-negative bacteria strains. All compounds were also pre-incubated in water for an hour prior to testing as control.

Staph. aureus Smith = experiment: In vivo activity (oral, iv; ED50) against Staph. aureus Smith in mice
Procedure: Representative examples of compounds of Formula I were tested for the oral efficacy using S. aureus Smith in mice.

E. faecalis GC 2267 = experiment: MIC, broth microdilution; conditions: Enterococcus faecalis
E. coli GC 2203 = experiment: MIC, broth microdilution; conditions: Escherichia coli
S. aureus GC 6466 = experiment: MIC, broth microdilution; conditions: Staphylococcus aureus
E. coli GC 6465 = experiment: MIC, broth microdilution; conditions: Escherichia coli
P. aeruginosa GC 2214 = experiment: MIC, broth microdilution; conditions: Pseudomonas aeruginosa
Procedure: as §1, §2

S. aureus GC 1131 = experiment: MIC, broth microdilution; conditions: Staphylococcus aureus
S. aureus GC 4536 = experiment: MIC, broth microdilution; conditions: Staphylococcus aureus
E. coli GC 4559 = experiment: MIC, broth microdilution; conditions: Escherichia coli
[1] = read-out: MINIMAL INHIBITORY CONCENTRATION MIC, Human Serum
[2] = read-out: MINIMAL INHIBITORY CONCENTRATION MIC, Mouse Serum
[3] = read-out: MINIMAL INHIBITORY CONCENTRATION MIC, Water

CC(C)CC(=O)OCOC(=O)N(CC(=O)Nc1cc(N(C)C)c2c(c1O)C(=O)C1=C(O)[C@]3(O)C(=O)C(C(N)=O)=C(O)[C@@H](N(C)C)[C@@H]3C[C@@H]1C2)C(C)(C)C [Example 53, ({[(2-{[(5aR,6aS,7S,10aS)-9-(aminocarbonyl)-4,7-bis(dimethylamino)-1,8,10a,11-tetrahydroxy-10,12-dioxo-5,5a,6,6a,7,10,10a,12-octahydrotetracen-2-yl]amino}-2-oxoethyl)(tert-butyl)amino]carbonyl}oxy)methyl 3-methylbutanoate]
8 µg/mL: MIC (E. coli GC 2272; GC2272, read-out: MINIMAL INHIBITORY CONCENTRATION MIC, Human Serum) | MIC (E. coli GC 2232; GC2232, read-out: MINIMAL INHIBITORY CONCENTRATION MIC, Human Serum) | MIC (E. coli GC 2234; GC2234, read-out: MINIMAL INHIBITORY CONCENTRATION MIC, Human Serum)
5.08 mg/kg: ED50 (Staph. aureus Smith; Staphylococcus aureus, in Mus musculus, po, read-out: ED50 SOD (Staph aureus Smith)) | ED50 (Staph. aureus Smith; Staphylococcus aureus, in Mus musculus, po, read-out: ED50 Staph Smith SOD)
0.73 mg/kg: ED50 (Staph. aureus Smith; Staphylococcus aureus, in Mus musculus, iv, read-out: ED50 SIV (Staph aureus Smith)) | ED50 (Staph. aureus Smith; iv, read-out: ED50 Staph Smith SIV)
4 µg/mL: MIC (E. faecalis GC 2267; GC2267, read-out: MINIMAL INHIBITORY CONCENTRATION MIC, Water) | MIC (E. coli GC 6465; GC6465, read-out: MINIMAL INHIBITORY CONCENTRATION MIC, Mouse Serum)
0.5 µg/mL: MIC (E. faecalis GC 2242; GC2242, read-out: MINIMAL INHIBITORY CONCENTRATION MIC, Mouse Serum) | MIC (S. aureus GC 2216; GC2216, read-out: MINIMAL INHIBITORY CONCENTRATION MIC, Human Serum) | MIC (S. aureus GC 2216; GC2216, read-out: MINIMAL INHIBITORY CONCENTRATION MIC, Mouse Serum) | MIC (E. coli GC 4560; GC4560, read-out: MINIMAL INHIBITORY CONCENTRATION MIC, Mouse Serum) | MIC (E. coli GC 2232; GC2232, read-out: MINIMAL INHIBITORY CONCENTRATION MIC, Mouse Serum) | MIC (E. coli GC 2234; GC2234, read-out: MINIMAL INHIBITORY CONCENTRATION MIC, Mouse Serum) | MIC (E. faecalis GC 2267; GC2267, read-out: MINIMAL INHIBITORY CONCENTRATION MIC, Mouse Serum) | MIC (S. aureus GC 6466; GC6466, read-out: MINIMAL INHIBITORY CONCENTRATION MIC, Human Serum) | MIC (S. aureus GC 6466; GC6466, read-out: MINIMAL INHIBITORY CONCENTRATION MIC, Mouse Serum) | MIC (S. aureus GC 6466; GC6466, read-out: MINIMAL INHIBITORY CONCENTRATION MIC, Water) | MIC (S. aureus GC 4536; GC4536, read-out: MINIMAL INHIBITORY CONCENTRATION MIC, Human Serum)
1 µg/mL: MIC (E. coli GC 2231; GC2231, read-out: MINIMAL INHIBITORY CONCENTRATION MIC, Mouse Serum) | MIC (S. aureus GC 6467; GC6467, read-out: MINIMAL INHIBITORY CONCENTRATION MIC, Human Serum) | MIC (S. aureus GC 6467; GC6467, read-out: MINIMAL INHIBITORY CONCENTRATION MIC, Mouse Serum) | MIC (S. aureus GC 2216; GC2216, read-out: MINIMAL INHIBITORY CONCENTRATION MIC, Water) | MIC (S. epidermidis GC 4935; GC4935, read-out: MINIMAL INHIBITORY CONCENTRATION MIC, Mouse Serum) | MIC (S. pneumoniae+ GC 4465; [1]) | MIC (E. coli GC 2203; GC2203, read-out: MINIMAL INHIBITORY CONCENTRATION MIC, Mouse Serum) | MIC (S. aureus GC 1131; GC1131, read-out: MINIMAL INHIBITORY CONCENTRATION MIC, Human Serum) | MIC (S. aureus GC 1131; GC1131, read-out: MINIMAL INHIBITORY CONCENTRATION MIC, Mouse Serum) | MIC (S. aureus GC 1131; GC1131, read-out: MINIMAL INHIBITORY CONCENTRATION MIC, Water) | MIC (S. aureus GC 4536; GC4536, read-out: MINIMAL INHIBITORY CONCENTRATION MIC, Water) | MIC (E. coli GC 4559; GC4559, read-out: MINIMAL INHIBITORY CONCENTRATION MIC, Mouse Serum)
0.25 µg/mL: MIC (S. pneumoniae* GC 4465; [1]) | MIC (E. coli GC 2272; GC2272, read-out: MINIMAL INHIBITORY CONCENTRATION MIC, Mouse Serum) | MIC (S. aureus GC 4536; GC4536, read-out: MINIMAL INHIBITORY CONCENTRATION MIC, Mouse Serum)
64 µg/mL: MIC (E. coli GC 2231; GC2231, read-out: MINIMAL INHIBITORY CONCENTRATION MIC, Water) | MIC (P. aeruginosa GC 2214; GC2214, read-out: MINIMAL INHIBITORY CONCENTRATION MIC, Mouse Serum)
0.12 µg/mL: MIC (S. pneumoniae* GC 4465; [2]) | MIC (S. pneumoniae* GC 4465; [3])
> 64 µg/mL: MIC (E. coli GC 6465; GC6465, read-out: MINIMAL INHIBITORY CONCENTRATION MIC, Water) | MIC (P. aeruginosa GC 2214; GC2214, read-out: MINIMAL INHIBITORY CONCENTRATION MIC, Human Serum) | MIC (P. aeruginosa GC 2214; GC2214, read-out: MINIMAL INHIBITORY CONCENTRATION MIC, Water)
16 µg/mL: MIC (E. coli GC 2231; GC2231, read-out: MINIMAL INHIBITORY CONCENTRATION MIC, Human Serum) | MIC (E. coli GC 2272; GC2272, read-out: MINIMAL INHIBITORY CONCENTRATION MIC, Water) | MIC (E. coli GC 2234; GC2234, read-out: MINIMAL INHIBITORY CONCENTRATION MIC, Water) | MIC (E. coli GC 2203; GC2203, read-out: MINIMAL INHIBITORY CONCENTRATION MIC, Human Serum) | MIC (E. coli GC 4559; GC4559, read-out: MINIMAL INHIBITORY CONCENTRATION MIC, Human Serum)
32 µg/mL: MIC (E. coli GC 2232; GC2232, read-out: MINIMAL INHIBITORY CONCENTRATION MIC, Water) | MIC (E. coli GC 2203; GC2203, read-out: MINIMAL INHIBITORY CONCENTRATION MIC, Water) | MIC (E. coli GC 6465; GC6465, read-out: MINIMAL INHIBITORY CONCENTRATION MIC, Human Serum) | MIC (E. coli GC 4559; GC4559, read-out: MINIMAL INHIBITORY CONCENTRATION MIC, Water)
2 µg/mL: MIC (E. faecalis GC 2242; GC2242, read-out: MINIMAL INHIBITORY CONCENTRATION MIC, Human Serum) | MIC (E. faecalis GC 2242; GC2242, read-out: MINIMAL INHIBITORY CONCENTRATION MIC, Water) | MIC (S. aureus GC 6467; GC6467, read-out: MINIMAL INHIBITORY CONCENTRATION MIC, Water) | MIC (E. coli GC 4560; GC4560, read-out: MINIMAL INHIBITORY CONCENTRATION MIC, Human Serum) | MIC (E. coli GC 4560; GC4560, read-out: MINIMAL INHIBITORY CONCENTRATION MIC, Water) | MIC (S. epidermidis GC 4935; GC4935, read-out: MINIMAL INHIBITORY CONCENTRATION MIC, Human Serum) | MIC (S. epidermidis GC 4935; GC4935, read-out: MINIMAL INHIBITORY CONCENTRATION MIC, Water) | MIC (S. pneumoniae+ GC 4465; [2]) | MIC (S. pneumoniae+ GC 4465; [3]) | MIC (E. faecalis GC 2267; GC2267, read-out: MINIMAL INHIBITORY CONCENTRATION MIC, Human Serum)
